Results on 2 compounds are retold here after patent US20110311661A1, “Plant Extracts and Dermatological Uses Thereof” (priority 2003, published 2011).

The test system of data set [1] is human skin fibroblasts. The data set can be described thus: Inhibition of dermal contraction, fibroblast-populated collagen I gel. It is filed as cell-based. As to conditions: positive control at 50 μM; collagen gels up to 7 days.
Experimental: The skin model comprises human skin fibroblasts imbedded in a collagen I matrix and provides an in vitro representation of dermal contraction resulting from tractional forces generated by fibroblasts.
The ability of exemplary plant extracts to inhibit dermal contraction was evaluated on human skin fibroblasts (Cascade Biologics, Portland, Oreg.). The cells were imbedded in a collagen I matrix to create a derm-like environment. Fibroblasts were grown in complete M106 to 80% confluence. Free-floating fibroblast-populated collagen gels were prepared in 24-well plates. […] The mix was kept on ice until distribution. The derm-like gels were allowed to polymerize for 1 hour at 37° C. in a humidified 5% CO2 atmosphere. After incubation, the gels were detached from the wells. […] FBS at a final concentration of 10% was added to each well. The plate was incubated for a maximum of 7 days at 37° C. in a humidified 5% CO2 atmosphere. All assays were performed in duplicate. Contraction was measured beginning at day 3. Contracting gels were digitally photographed and the gel areas were calculated using ImagePro software.
Data set [2] concerns human skin keratinocytes. In words: IL-8 release ELISA. It is filed as cell-based. The note with it: positive control at 2.5 μM; 48 hours. Here is the method:
The amount of Interleukin-8 (IL-8) released after exposure of keratinocytes to a plant extract, as described below, can be used to quantify any possible irritation reaction to the extract.
IL-8 release was evaluated in human skin keratinocytes (Cascade Biologics, Portland, Oreg.) using the Quantikine hIL-8 ELISA kit (R&D Systems, Minneapolis, Minn.). Keratinocytes were first grown in a 96-well plate using the complete M154 (M154+HKGS from Cascade Biologics). This media was also used as control. Phorbol 12-myristate 13-acetate (PMA) (Sigma-Aldrich Canada, Oakville, Ontario) at a concentration of 2.5 μM was used as a positive control. All tested plant extracts and the controls were diluted in complete M154 at a non-cytotoxic concentration (i.e. the concentration that provided 100% viability of keratinocytes as shown in Table 10). Cells were seeded into 96-well plates at a concentration of 8×10^3 cells/well in complete M154 media. Plates were incubated for 48 hours at 37° C. in a humidified 5% CO2 atmosphere. After incubation, the medium was removed and 200 μl of sample was added to the wells (all in duplicate). […]
After incubation, each well was washed four times with wash buffer. […] The plate was then gently mixed and the absorbance read at 450 nm on the Spectrafluor Plus plate reader (Tecan). The reading was taken within 15 minutes following addition of the stop solution. […]

Molecules are shown by their SMILES.

In the case of `CNC(=O)[C@H](Cc1c[nH]c2ccccc12)NC(=O)[C@@H](CC(=O)NO)CC(C)C` [GM6001], in data set [1], the inhibition of contraction result is reported as “limited, but not complete, inhibition of contraction”.

With `CCCCCCCCCCCCCC(=O)O[C@@H]1[C@@H](C)[C@@]2(O)[C@@H](C=C(CO)C[C@]3(O)C(=O)C(C)=C[C@@H]23)[C@@H]2C(C)(C)[C@]12OC(C)=O` [PMA, Phorbol 12-myristate 13-acetate], the IL-8 release entry in data set [2] is reported as “highest level of IL-8 release”.
